These results are taken from patent publication US20090215759A1, “MODULATORS FOR AMYLOID BETA” (priority 2008, published 2009).

`COc1cc(Nc2nccc(N3CCC(O)CC3)n2)ccc1-n1cnc(C)c1`: the melting point is 197 to 200 °C.
The same measure for `Cc1cn(-c2ccc(Nc3nc(C)cc(Cc4ccccc4)n3)cc2F)cn1`: 155 to 158 °C; for `Cc1cc(Cc2ccccc2)nc(Nc2ccc(-n3ccnc3CO)cc2)n1`: 95 to 98 °C; for `Cc1cc(Cc2ccccc2)nc(Nc2ccc(-n3cnc(C)n3)c(F)c2)n1`: 183 to 185 °C.
The same measure for `COc1cc(Nc2nc(-c3ccc(Cl)cc3)cc(C(F)(F)F)n2)ccc1-n1cnc(C)c1`: 202 to 204 °C; for `COc1cc(Nc2nc(-c3ccc(-n4ccnc4)cc3)cc(C(F)(F)F)n2)ccc1-n1cnc(C)c1`: 248 to 250 °C.
The same measure for `COc1cc(Nc2nc(-c3ccc(-n4cccn4)cc3)cc(C(F)(F)F)n2)ccc1-n1cnc(C)c1`: 252 to 254 °C; for `CCOC(=O)c1cnc(Nc2ccc(-n3cnc(C)c3)c(OC)c2)nc1-c1cccc(C#N)c1`: 195 to 197 °C; for `CCOC(=O)C(c1ccccc1)c1nc(Nc2ccc(-n3cnc(C)c3)c(OC)c2)ncc1-c1ccccc1` (centres unmarked): 84 to 86 °C.
For `CCOC(=O)c1cnc(Nc2ccc(-n3cnc(C)c3)c(F)c2)nc1-c1ccc(Cl)cc1`, the melting point is 232 to 234 °C.
The value for `COc1cc(Nc2nccc(-c3ccc(Cl)cc3)n2)ccc1-n1cnc(C)c1` was 202 to 204 °C.
The value for `COc1cc(Nc2nccc(-c3cccnc3)n2)ccc1-n1cnc(C)c1` was 204 to 206 °C.
The compound `Cc1cn(-c2ccc(Nc3nc(-c4ccc(Cl)cc4)cc(C(F)(F)F)n3)cc2F)cn1` came in with a melting point of 248 to 250 °C.
The same measure for `CCOC(=O)c1cnc(Nc2ccc(-n3cnc(C)c3)c(F)c2)nc1-c1ccc(C(F)(F)F)cc1`: 219 to 221 °C.
The value for `Cc1cn(-c2ccc(Nc3nccc(-c4ccc(C(F)(F)F)cc4)n3)cc2F)cn1` was 196 to 197 °C; that for `CCOC(=O)c1cnc(Nc2ccc(-n3cnc(C)c3)c(OC)c2)nc1-c1ccc(Cl)cc1` [Example 28, Ethyl 4-(4-chloro-phenyl)-2-[3-methoxy-4-(4-methyl-imidazol-1-yl)-phenylamino]-pyrimidine-5-carboxylate] was 216 to 218 °C; that for `COc1cc(Nc2nc(C)cc(Cc3ccccc3)n2)ccc1-c1cnc(C)s1` [Example 209, (4-Benzyl-6-methyl-pyrimidin-2-yl)-[3-methoxy-4-(2-methyl-thiazol-5-yl)-phenyl]-amine] was 138 to 141 °C.
